The term IC50 denotes the point on the concentration scale where inhibition reaches its midpoint. A low value points to inhibition by little substance.

The values that follow come from ChEMBL document CHEMBL1133834, “Design and synthesis of Pfmrk inhibitors as potential antimalarial agents” (Bioorg Med Chem Lett, 2001).

The target in the first assay is T1, Protein kinase Pfmrk (Plasmodium falciparum, UniProt P90584).
T1 sequence (P90584 whole entry): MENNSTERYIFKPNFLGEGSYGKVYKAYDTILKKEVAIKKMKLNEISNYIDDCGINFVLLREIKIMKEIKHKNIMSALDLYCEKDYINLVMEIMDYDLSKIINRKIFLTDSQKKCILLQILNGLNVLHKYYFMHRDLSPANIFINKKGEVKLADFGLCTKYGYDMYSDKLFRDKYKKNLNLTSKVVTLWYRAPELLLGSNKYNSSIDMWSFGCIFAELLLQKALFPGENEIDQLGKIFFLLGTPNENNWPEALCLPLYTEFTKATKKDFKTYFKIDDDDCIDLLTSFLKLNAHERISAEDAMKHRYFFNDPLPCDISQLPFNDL
Description: Inhibition of Plasmodium falciparum cyclin dependent protein kinase (Pfmrk).
Compound `Oc1ccc2nc3oc4ccccc4c3c(O)c2c1` registered an IC50 of 187 µM.

As for `Oc1c2ccccc2nc2oc3ccccc3c12`, the IC50 is below 371 µM.

As for `Oc1ccc2nc(O)c3c4ccccc4oc3c2c1`, 539 µM corresponded to half-maximal inhibition (IC50).

`OCCOc1cccc(-c2cc3ccccc3nc2O)c1`: inhibition was half-maximal at 18 µM (IC50). Compared with the last compound, the IC50 is about 30-fold lower.

`O=C(O)COc1cccc(-c2cc3ccccc3nc2O)c1` showed an IC50 of 102 µM.

The target of another assay is T1, Protein kinase Pfmrk. Description: Inhibition of Plasmodium falciparum cyclin dependent protein kinase (No inhibition).
Consider `Oc1nc2ccccc2c2oc3ccccc3c12`, for which the IC50 entry is listed as “Not Active”.

As to `Oc1[nH]c2ccccc2c2nc3ccccc3c1-2`, the IC50 result is listed as “Not Active”.
